Source: patent publication US20220073471A1 (JIANGSU HENGRUI MEDICINE CO., LTD., priority 2019, published 2022)

target: T1, Nav1.8 ion channel stably expressed on HEK293 cells (Homo sapiens, UniProt Q9Y5Y9); test: Inhibitory activity on Nav1.8, manual patch clamp; assay type: cell-based; conditions: resting, clamped at -80 mV, 1 μM TTX, read-out: IC50 on inhibiting the Nav1.8 channel activity
T1 construct: expressed in transfected cells; host or cells: HEK293
Source text: The purpose of the experiment is to investigate the effect of the compounds on Nav1.8 ion channel in an in vitro experiment, wherein the Nav1.8 ion channel is stably expressed on HEK293 cells. After the Nav1.8 current becomes stable, the Nav1.8 currents before and after the administration of the compound are compared so as to obtain the effect of the compound on the Nav1.8 ion channel.
Except for NaOH and KOH used for acid titration and base titration, all the compounds used for formulating the extracellular fluid and intracellular fluid were purchased from Sigma (St. Louis, Mo.). Extracellular fluid (mM): NaCl, 137; KCl, 4; CaCl2), 1.8; MgCl2, 1; HEPES, 10; glucose, 10; pH 7.4 (NaOH titration). Intracellular fluid (mM): aspartic acid, 140; MgCl2, 2; EGTA, 11; HEPES, 10; pH 7.2 (CsOH titration). All solutions of test compound and control compound contained 1 μM TTX.
The test compound was dissolved in dimethyl sulfoxide (DMSO) at a stock concentration of 9 mM. The stock solution of the test compound was dissolved in the extracellular fluid on the day of the test and formulated into the required concentration.
1) The compound was formulated into solutions with specified concentrations, the solutions were added to the pipelines respectively in order from low to high concentration, and the pipelines were marked.
2) The cell was transferred to the perfusion tank. A positive pressure was applied to the electrode. The tip of the electrode touched the cell. The three-way valve of the air extracting device was adjusted to a three-way state. A negative pressure was applied to the electrode, so that a high-resistance seal was formed between the electrode and the cell.
The negative pressure was applied continuously, thereby causing the cell membrane to rupture and forming a current path.
3) After the current for rupturing the cell membrane became stable, perfusion of different concentrations was carried out in sequence. Once the current was stable for at least one minute, perfusion of the next concentration was carried out.
4) The perfusion tank was cleaned. The perfusion tank was rinsed with the drug solutions in order from high to low concentration, and the rinse duration for each concentration of drug solution was 20 seconds. The perfusion tank was finally rinsed with the extracellular fluid for 1 minute.
The cell was clamped at −80 mV. The cell was depolarized to 10 mV with a square wave lasting 10 milliseconds to obtain the Nav1.8 current. This procedure was repeated every 5 seconds. The maximum current caused by the square wave was measured. After the current became stable, the test compound was perfused. After the response became stable, the blocking intensity was calculated.
The data was stored in the computer system for analysis. Data collection and analysis were carried out by pCLAMP 10 (Molecular Devices, Union City, Calif.), and the analysis results were reviewed by the administrator. Stable current means that the current changes within a limited range over time. The magnitude of stable current was used to calculate the effect of the compound at the concentration.

T1 sequence (Q9Y5Y9 whole entry): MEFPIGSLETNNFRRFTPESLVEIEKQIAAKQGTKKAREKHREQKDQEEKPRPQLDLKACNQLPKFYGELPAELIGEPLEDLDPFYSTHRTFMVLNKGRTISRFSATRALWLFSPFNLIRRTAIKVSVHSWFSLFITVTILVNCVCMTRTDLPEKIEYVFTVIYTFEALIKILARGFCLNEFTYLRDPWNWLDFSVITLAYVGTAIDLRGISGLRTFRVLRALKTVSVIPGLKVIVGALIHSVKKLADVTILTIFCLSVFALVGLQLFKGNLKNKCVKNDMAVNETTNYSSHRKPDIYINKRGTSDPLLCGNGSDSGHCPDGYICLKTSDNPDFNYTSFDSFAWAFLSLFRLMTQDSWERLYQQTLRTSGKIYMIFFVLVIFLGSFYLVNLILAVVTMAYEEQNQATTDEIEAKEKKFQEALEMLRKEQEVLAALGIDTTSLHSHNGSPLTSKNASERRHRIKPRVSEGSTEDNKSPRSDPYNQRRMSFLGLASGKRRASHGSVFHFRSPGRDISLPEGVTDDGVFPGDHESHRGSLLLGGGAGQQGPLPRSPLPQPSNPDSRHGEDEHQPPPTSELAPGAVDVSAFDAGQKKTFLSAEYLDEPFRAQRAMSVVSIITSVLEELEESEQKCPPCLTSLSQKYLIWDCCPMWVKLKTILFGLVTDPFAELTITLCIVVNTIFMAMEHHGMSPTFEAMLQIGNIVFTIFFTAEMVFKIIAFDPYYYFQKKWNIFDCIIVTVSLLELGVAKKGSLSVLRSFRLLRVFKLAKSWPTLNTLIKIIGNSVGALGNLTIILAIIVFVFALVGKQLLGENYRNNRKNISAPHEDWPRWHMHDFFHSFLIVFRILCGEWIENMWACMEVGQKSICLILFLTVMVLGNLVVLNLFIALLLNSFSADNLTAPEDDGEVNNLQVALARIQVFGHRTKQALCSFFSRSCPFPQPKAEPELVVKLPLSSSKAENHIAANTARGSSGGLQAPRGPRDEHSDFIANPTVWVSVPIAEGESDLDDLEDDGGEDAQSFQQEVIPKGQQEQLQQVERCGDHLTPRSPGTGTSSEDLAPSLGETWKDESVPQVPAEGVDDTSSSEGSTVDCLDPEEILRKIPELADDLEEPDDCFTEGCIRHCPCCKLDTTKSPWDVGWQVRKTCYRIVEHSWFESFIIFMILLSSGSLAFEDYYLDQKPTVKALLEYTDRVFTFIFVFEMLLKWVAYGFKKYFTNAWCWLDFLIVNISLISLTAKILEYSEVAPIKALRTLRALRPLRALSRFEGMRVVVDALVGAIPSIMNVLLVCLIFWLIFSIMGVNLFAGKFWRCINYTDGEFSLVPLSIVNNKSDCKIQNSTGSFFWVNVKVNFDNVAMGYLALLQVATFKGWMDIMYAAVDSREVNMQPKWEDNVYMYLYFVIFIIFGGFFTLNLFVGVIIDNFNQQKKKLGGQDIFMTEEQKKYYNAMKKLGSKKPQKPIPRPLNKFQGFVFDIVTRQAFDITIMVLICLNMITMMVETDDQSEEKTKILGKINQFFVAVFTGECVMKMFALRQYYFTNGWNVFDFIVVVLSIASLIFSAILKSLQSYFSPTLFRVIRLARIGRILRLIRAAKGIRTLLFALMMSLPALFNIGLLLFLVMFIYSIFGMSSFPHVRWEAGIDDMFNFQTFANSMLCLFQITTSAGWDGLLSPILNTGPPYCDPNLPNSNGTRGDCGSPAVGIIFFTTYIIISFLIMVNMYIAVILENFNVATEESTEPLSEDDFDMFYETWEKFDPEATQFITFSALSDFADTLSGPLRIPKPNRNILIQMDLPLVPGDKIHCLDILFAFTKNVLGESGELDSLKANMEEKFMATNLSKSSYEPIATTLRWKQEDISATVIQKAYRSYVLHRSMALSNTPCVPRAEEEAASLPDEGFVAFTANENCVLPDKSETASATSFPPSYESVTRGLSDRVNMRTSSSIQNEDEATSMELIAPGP

Compound | IC50 [nM]
COc1cc(F)ccc1Oc1cc(Cl)c(Cl)cc1C(=O)Nc1cn[nH]c(=O)c1 [Example 1, 4,5-Dichloro-2-(4-fluoro-2-methoxyphenoxy)-N-(6-oxo-1,6-dihydropyridazin-4-yl)benzamide] | 1.6
Cc1cc(F)ccc1Oc1cc(Cl)c(Cl)cc1C(=O)Nc1cn[nH]c(=O)c1 [Example 3, 4,5-Dichloro-2-(4-fluoro-2-methylphenoxy)-N-(6-oxo-1,6-dihydropyridazin-4-yl)benzamide] | 3.3
O=C(Nc1cn[nH]c(=O)c1)c1cc(Cl)c(Cl)cc1Oc1ccc(F)cc1 [Example 4, 4,5-Dichloro-2-(4-fluorophenoxy)-N-(6-oxo-1,6-dihydropyridazin-4-yl)benzamide] | 14.1
Cc1cc(F)ccc1Oc1cc(C(F)(F)C(F)(F)F)ccc1C(=O)Nc1cn[nH]c(=O)c1 [Example 5, 2-(4-Fluoro-2-methylphenoxy)-N-(6-oxo-1,6-dihydropyridazin-4-yl)-4-(perfluoroethyl)benzamide] | 23.7
Cc1cc(OC(F)(F)F)ccc1Oc1cc(C(F)(F)F)ccc1C(=O)Nc1cn[nH]c(=O)c1 [Example 6, 2-(2-Methyl-4-(trifluoromethoxy)phenoxy)-N-(6-oxo-1,6-dihydropyridazin-4-yl)-4-(trifluoromethyl)benzamide] | 24.4
Cc1cc(F)ccc1Oc1ccc(C(F)(F)F)cc1C(=O)Nc1cn[nH]c(=O)c1 [Example 7, 2-(4-Fluoro-2-methylphenoxy)-N-(6-oxo-1,6-dihydropyridazin-4-yl)-5-(trifluoromethyl)benzamide] | 30.8
COc1cc(F)ccc1Oc1cc(C(F)(F)F)ccc1C(=O)Nc1cn[nH]c(=O)c1 [Example 8, 2-(4-Fluoro-2-methoxyphenoxy)-N-(6-oxo-1,6-dihydropyridazin-4-yl)-4-(trifluoromethyl)benzamide] | 45.8
Cc1cc(F)ccc1Oc1cc(C(F)(F)F)ccc1C(=O)Nc1cn[nH]c(=O)c1 [Example 9, 2-(4-Fluoro-2-methylphenoxy)-N-(6-oxo-1,6-dihydropyridazin-4-yl)-4-(trifluoromethyl)benzamide] | 83.4
Cc1cc(F)ccc1Cc1cc(C(F)(F)F)c(Cl)cc1C(=O)Nc1cn[nH]c(=O)c1 [Example 13, 5-Chloro-2-(4-fluoro-2-methylbenzyl)-N-(6-oxo-1,6-dihydropyridazin-4-yl)-4-(trifluoromethyl)benzamide] | 2.3
O=C(Nc1cn[nH]c(=O)c1)c1cc(Cl)c(C(F)(F)F)cc1Oc1ccc(OC(F)(F)F)cc1F [Example 14, 5-Chloro-2-(2-fluoro-4-(trifluoromethoxy)phenoxy)-N-(6-oxo-1,6-dihydropyridazin-4-yl)-4-(trifluoromethyl)benzamide] | 2.5
COc1cc(F)ccc1Oc1ccc(C(F)(F)F)cc1C(=O)Nc1cn[nH]c(=O)c1 [Example 16, 2-(4-Fluoro-2-methoxyphenoxy)-N-(6-oxo-1,6-dihydropyridazin-4-yl)-5-(trifluoromethyl)benzamide] | 17.9
COc1cc(F)ccc1Sc1cc(C(F)(F)F)c(Cl)cc1C(=O)Nc1cn[nH]c(=O)c1 [Example 17, 5-Chloro-2-((4-fluoro-2-methoxyphenyl)thio)-N-(6-oxo-1,6-dihydropyridazin-4-yl)-4-(trifluoromethyl)benzamide] | 18
COc1cc(F)ccc1Oc1cc(Cl)c(F)cc1C(=O)Nc1cn[nH]c(=O)c1 [Example 18, 4-Chloro-5-fluoro-2-(4-fluoro-2-methoxyphenoxy)-N-(6-oxo-1,6-dihydropyridazin-4-yl)benzamide] | 22.2
Cc1cc(F)ccc1Oc1cc(Cl)c(F)cc1C(=O)Nc1cn[nH]c(=O)c1 [Example 19, 4-Chloro-5-fluoro-2-(4-fluoro-2-methylphenoxy)-N-(6-oxo-1,6-dihydropyridazin-4-yl)benzamide] | 31.7
Cc1cc(F)ccc1Oc1cc(Cl)ccc1C(=O)Nc1cn[nH]c(=O)c1 [Example 20, 4-Chloro-2-(4-fluoro-2-methylphenoxy)-N-(6-oxo-1,6-dihydropyridazin-4-yl)benzamide] | 58.5
COc1cc(F)ccc1Oc1cc(Cl)ccc1C(=O)Nc1cn[nH]c(=O)c1 [Example 21, 4-Chloro-2-(4-fluoro-2-methoxyphenoxy)-N-(6-oxo-1,6-dihydropyridazin-4-yl)benzamide] | 59.4
COc1cc(F)ccc1Oc1ccc(OC(F)(F)F)cc1C(=O)Nc1cn[nH]c(=O)c1 [Example 22, 2-(4-Fluoro-2-methoxyphenoxy)-N-(6-oxo-1,6-dihydropyridazin-4-yl)-5-(trifluoromethoxy)benzamide] | 87.8
Cc1cc(F)ccc1Oc1ccc(Cl)cc1C(=O)Nc1cn[nH]c(=O)c1 [Example 23, 5-Chloro-2-(4-fluoro-2-methylphenoxy)-N-(6-oxo-1,6-dihydropyridazin-4-yl)benzamide] | 92.3
Cc1cc(F)ccc1Oc1cc(Cl)c(C(F)(F)F)cc1C(=O)Nc1cn[nH]c(=O)c1 [Example 27, 4-Chloro-2-(4-fluoro-2-methylphenoxy)-N-(6-oxo-1,6-dihydropyridazin-4-yl)-5-(trifluoromethyl)benzamide] | 5.7
Cc1cc(Oc2ccc(F)cc2C)c(C(=O)Nc2cn[nH]c(=O)c2)cc1Cl [Example 28, 5-Chloro-2-(4-fluoro-2-methylphenoxy)-4-methyl-N-(6-oxo-1,6-dihydropyridazin-4-yl)benzamide] | 5.2
Cc1cc(F)ccc1Oc1cc(C(F)(F)F)cc(C(F)(F)F)c1C(=O)Nc1cn[nH]c(=O)c1 [Example 29, 2-(4-Fluoro-2-methylphenoxy)-N-(6-oxo-1,6-dihydropyridazin-4-yl)-4,6-bis(trifluoromethyl)benzamide] | 90.4
Cc1ccccc1Oc1cc(C(F)(F)F)c(Cl)cc1C(=O)Nc1cn[nH]c(=O)c1 [Example 30, 5-Chloro-N-(6-oxo-1,6-dihydropyridazin-4-yl)-2-(o-tolyloxy)-4-(trifluoromethyl)benzamide] | 16.2
CCOc1cc(F)ccc1Oc1cc(C(F)(F)F)c(Cl)cc1C(=O)Nc1cn[nH]c(=O)c1 [Example 32, 5-Chloro-2-(2-ethoxy-4-fluorophenoxy)-N-(6-oxo-1,6-dihydropyridazin-4-yl)-4-(trifluoromethyl)benzamide] | 0.37
Cc1cc(F)ccc1Oc1cc(C(F)(F)F)c(C)cc1C(=O)Nc1cn[nH]c(=O)c1 [Example 34, 2-(4-Fluoro-2-methylphenoxy)-5-methyl-N-(6-oxo-1,6-dihydropyridazin-4-yl)-4-(trifluoromethyl)benzamide] | 11.5
CCc1cc(F)ccc1Oc1cc(C(F)(F)F)c(Cl)cc1C(=O)Nc1cn[nH]c(=O)c1 [Example 36, 5-Chloro-2-(2-ethyl-4-fluorophenoxy)-N-(6-oxo-1,6-dihydropyridazin-4-yl)-4-(trifluoromethyl)benzamide] | 1.54
O=C(Nc1cn[nH]c(=O)c1)c1cc(Cl)c(C(F)(F)F)cc1Oc1ccc(F)cc1OC(F)F [Example 37, 5-Chloro-2-(2-(difluoromethoxy)-4-fluorophenoxy)-N-(6-oxo-1,6-dihydropyridazin-4-yl)-4-(trifluoromethyl)benzamide] | 2.38
O=C(Nc1cn[nH]c(=O)c1)c1cc(Cl)c(C(F)(F)F)cc1Oc1ccc(F)c2c1CCC2 [Example 39, 5-Chloro-2-((7-fluoro-2,3-dihydro-1H-inden-4-yl)oxy)-N-(6-oxo-1,6-dihydropyridazin-4-yl)-4-(trifluoromethyl)benzamide] | 0.24
O=C(Nc1cn[nH]c(=O)c1)c1cc(Cl)c(C(F)(F)F)cc1Oc1ccc(F)cc1OC1CCCC1 [Example 40, 5-Chloro-2-(2-(cyclopentyloxy)-4-fluorophenoxy)-N-(6-oxo-1,6-dihydropyridazin-4-yl)-4-(trifluoromethyl)benzamide] | 0.32
O=C(Nc1cn[nH]c(=O)c1)c1cc(Cl)c(C(F)(F)F)cc1Oc1ccc(F)cc1OC1CCC1 [Example 41, 5-Chloro-2-(2-cyclobutoxy-4-fluorophenoxy)-N-(6-oxo-1,6-dihydropyridazin-4-yl)-4-(trifluoromethyl)benzamide] | 1.86
CC(C)Oc1cc(F)ccc1Oc1cc(C(F)(F)F)c(Cl)cc1C(=O)Nc1cn[nH]c(=O)c1 [Example 42] | 2.98
